Measurements as given in patent US7312245B2 (priority 2001, dated 2007).
Read-outs that look alike come from different tables or passages of the source.

Columns and labels:
Type in all cases: in vivo
[1] = tested on: Pyricularia oryzae; conditions: nursery box treated with granules 50 g per box; rice Koshihikari; inoculated 30 days after transplantation; lesions counted after 1 week
[2] = tested on: Pyricularia oryzae; conditions: granules applied to water surface at 3 kg/10 ares; rice Koshihikari; inoculated 30 days after application; lesions checked after 1 week
[3] = tested on: Pyricularia oryzae; conditions: spray application of wettable powder diluted to 500 ppm; rice Koshihikari 2-leaf stage; spray-inoculated with Pyricularia oryzae spores; examined after 7 days

SMILES	Grade of Effect (preventive value, rice blast controlling effect) [1]	Grade of Effect (preventive value, rice blast controlling effect) [2]	Grade of Effect (preventive value, rice blast controlling effect) [3]
CC(CNC(=O)c1ccccc1)NC(=O)c1ccccc1 (stereo not drawn) [Formula (7), reference compound]	C (less than 50%)	C (less than 50%)	D (less than 50%)
CCC(CNC(=O)Oc1ccccc1)NC(=O)OC (stereo not drawn) [Formula (8), reference compound]	C (less than 50%)	C (less than 50%)	D (less than 50%)
COC(=O)NC(C)CNC(=O)c1ccc(Cl)cc1 (stereo not drawn) [compound 4]	A (From 80% to 100%)	A (From 80% to 100%)	A (100%)
COC(=O)NC(CNC(=O)c1ccccc1)C(C)C (stereo not drawn) [compound 26]	A (From 80% to 100%)	A (From 80% to 100%)	A (100%)
COC(=O)NC(CNC(=O)c1ccc(C)cc1)C(C)C (stereo not drawn) [compound 30]	A (From 80% to 100%)	A (From 80% to 100%)	A (100%)
COC(=O)NC(CNC(=O)c1ccccc1)c1ccccc1 (stereo not drawn) [compound 66, N-(methoxycarbonyl)-N′-benzoyl-1-phenyl-1,2-ethylenediamine]	A (From 80% to 100%)	A (From 80% to 100%)	A (100%)
Cc1ccc(C(=O)NCC(C)NC(=O)OC(C)C)cc1 (stereo not drawn) [compound 215]	A (From 80% to 100%)	A (From 80% to 100%)	A (100%)
CC(CNC(=O)c1ccc(C(C)(C)C)cc1)NC(=O)OC(C)C (stereo not drawn) [compound 216]	A (From 80% to 100%)	A (From 80% to 100%)	A (100%)
CC(C)OC(=O)NC(CNC(=O)c1ccccc1)C(C)C (stereo not drawn) [compound 236]	A (From 80% to 100%)	A (From 80% to 100%)	A (100%)
CC(C)OC(=O)NC(CNC(=O)c1ccc(Cl)cc1)C(C)C (stereo not drawn) [compound 237]	A (From 80% to 100%)	A (From 80% to 100%)	A (100%)
CC(C)OC(=O)NC(CNC(=O)c1ccc(Cl)c(Cl)c1)C(C)C (stereo not drawn) [compound 238]	A (From 80% to 100%)	A (From 80% to 100%)	A (100%)
Cc1ccccc1C(=O)NCC(NC(=O)OC(C)C)C(C)C (stereo not drawn) [compound 239]	A (From 80% to 100%)	A (From 80% to 100%)	A (100%)
Cc1ccc(C(=O)NCC(NC(=O)OC(C)C)C(C)C)cc1 (stereo not drawn) [compound 240]	A (From 80% to 100%)	A (From 80% to 100%)	A (100%)
CCc1ccc(C(=O)NCC(NC(=O)OC(C)C)C(C)C)cc1 (stereo not drawn) [compound 241]	A (From 80% to 100%)	A (From 80% to 100%)	A (100%)
